According to the OPERA property sets (Mansouri et al. 2018):

Settings: not given

Structure (SMILES) | boiling point [°C] | melting point [°C] | logP | log10 vapour pressure (mmHg) | log10 Koc (L/kg) | log10 Henry constant (atm·m³/mol) | log10 Koa | ready biodegradability | log10 biodegradation half-life (days)
NCCCN1CCOCC1 | 220 | -15 | – | – | – | – | – | – | –
CCC(C)SC(C)CC (centres undefined) | 165 | – | – | – | – | – | – | – | –
O=C(CCl)C(Cl)Cl | 172 | – | – | – | – | – | – | – | –
CCC(C)Oc1ccccc1 (centres undefined) | 194 | – | – | – | – | – | – | – | –
CSc1ccccc1N | 234 | – | – | – | – | – | – | – | –
O=C(O)c1ccc(C(=O)O)s1 | – | 359 | – | – | – | – | – | – | –
Brc1cc(Br)c(Oc2cc(Br)c(Br)cc2Br)c(Br)c1 | – | – | 7.82 | – | – | – | – | – | –
Cc1ccc2c(c1Cl)C(=O)c1ccccc1C2=O | – | 170 | – | – | – | – | – | – | –
CC(C)NCc1ccccc1 | 200 | – | – | – | – | – | – | – | –
CN(C)C(=O)SCCCCOc1ccccc1 | – | 40.5 | – | -5.9 | – | – | – | – | –
CCCOC(=O)C1CCCCC1 | 216 | – | – | – | – | – | – | – | –
CC(=O)Nc1ccc(F)cc1 | – | 154 | – | – | 1.48 | – | – | – | –
Fc1ccccc1C(F)(F)F | 114 | – | – | 1.58 | – | – | – | – | –
CCCCOC(C)=O | 126 | – | – | 1.06 | – | -3.55 | 3.65 | readily biodegradable | –
Sc1c(Cl)c(Cl)c(Cl)c(Cl)c1Cl | – | 232 | – | – | – | – | – | – | –
O=C1C(O)=C(Cl)C(=O)C(O)=C1Cl | – | 284 | – | – | – | – | – | – | –
Clc1cc(Cl)c(Cl)c(-c2cc(Cl)c(Cl)c(Cl)c2Cl)c1 | – | – | – | – | – | -5.89 | – | – | –
N#Cc1ccc2c(c1)N(CCCN1CCC(O)CC1)c1ccccc1S2 | – | 116 | – | – | – | – | – | – | –
Cc1ccc([N+](=O)[O-])c(Cl)c1 | – | 24 | – | – | – | – | – | – | –
CCCCCCCCOCCCCCCCC | 283 | -7.6 | – | – | – | – | – | readily biodegradable | –

Structure (SMILES) | boiling point [°C] | melting point [°C] | logP | log10 vapour pressure (mmHg) | log10 Koc (L/kg) | log10 Henry constant (atm·m³/mol) | log10 Koa | ready biodegradability | log10 biodegradation half-life (days)
Cc1cc(C)c([N+](=O)[O-])c(C)c1 | 255 | 44 | – | – | – | – | – | – | –
BrCOCBr | 154 | -34 | – | – | – | – | – | – | –
CCCCCCCCCCCCCCCCCCC1CC(=O)OC1=O (centres undefined) | – | – | – | – | – | – | – | not readily biodegradable | –
CCSCC(C)C | 134 | – | – | – | – | – | – | – | –
FC(Cl)(Cl)C(Cl)(Cl)Cl | 135 | 101 | – | – | – | – | – | – | –
CC(=O)OCCCl | 145 | – | – | – | – | – | – | – | –
CCCCCCCOC(=O)CCCCC | 261 | -34.4 | – | – | – | – | – | – | –
FC(F)(Cl)C(F)(F)C(F)(F)C(F)(F)C(F)(F)C(F)(F)C(F)(F)C(F)(F)Cl | 151 | – | – | – | – | – | – | – | –
CCCC(=O)N(CSP(=S)(OC)OC)c1ccccc1Cl | – | 42 | – | – | – | – | – | – | –
CCCCCCCCCCC1CCCC1 | 279 | -22 | – | – | – | – | – | – | –
CC(=O)Oc1ccc(C2(c3ccc(OC(C)=O)cc3)C(=O)Nc3ccccc32)cc1 | – | 242 | – | – | – | – | – | – | –
C=CC(CC)CCC (centres undefined) | 110 | – | – | – | – | – | – | – | –
CCOC(=O)CI | 179 | – | – | -0.195 | – | – | – | – | –
OC1(c2ccc(Cl)c(C(F)(F)F)c2)CCN(CCCC(c2ccc(F)cc2)c2ccc(F)cc2)CC1 | – | 106 | – | – | – | – | – | – | –
CC(Cl)C(C)(C)Cl (centres undefined) | 129 | – | – | – | – | – | – | – | –
NC(=S)Nc1cccc2ccccc12 | – | 198 | – | – | – | – | – | – | –
Cc1ccc(Br)c(C)c1 | 205 | -17 | – | – | – | – | – | – | –
CCCCCCCCCS | 220 | -20.1 | – | -0.881 | – | – | – | – | –
c1ccc2c(c1)Sc1ccccc1S2 | 365 | 159 | – | – | – | – | – | not readily biodegradable | –
CCC1C(C)=NN=C(c2ccc(OC)c(OC)c2)c2cc(OC)c(OC)cc21 (centres undefined) | – | 156 | – | – | – | – | – | – | –

Structure (SMILES) | boiling point [°C] | melting point [°C] | logP | log10 vapour pressure (mmHg) | log10 Koc (L/kg) | log10 Henry constant (atm·m³/mol) | log10 Koa | ready biodegradability | log10 biodegradation half-life (days)
Cc1ccc(N=Cc2ccccc2)cc1 | 318 | 35 | – | – | – | – | – | – | –
CC(Br)C(Br)Br (centres undefined) | 200 | – | – | – | – | – | – | – | –
C1C2CC3CC1CC(C2)C3 | – | 205 | – | – | – | – | – | – | 3
COc1c(C(C)C)oc2cc3oc(=O)ccc3cc12 | – | 85 | – | – | – | – | – | – | –
FC(F)(F)Br | -57.8 | -172 | – | 4.09 | – | -0.302 | – | – | –
Cc1cc(O)c(C(C)(C)C)cc1C(C)CC(c1cc(C(C)(C)C)c(O)cc1C)c1cc(C(C)(C)C)c(O)cc1C (centres undefined) | – | 186 | – | – | – | – | – | – | –
O=[N+]([O-])c1ccc2ccccc2c1 | 314 | 79 | – | – | – | – | – | – | –
C=C(C)C | -6.9 | -140 | – | 3.36 | – | -0.662 | – | – | –
N=C(N)NOCC[C@H](N)C(=O)O | – | 184 | – | – | – | – | – | – | –
CC(O)C(C)Cl (centres undefined) | 139 | – | – | – | – | – | – | – | –
CC(C)(C)OOC(C)(C)CCC(C)(C)OOC(C)(C)C | – | 8 | – | – | – | – | – | not readily biodegradable | –
CC(=O)Nc1ccc(O)cc1 | – | 170 | – | – | – | – | – | readily biodegradable | –
C#Cc1ccccc1 | 143 | -44.8 | – | 0.314 | – | – | – | – | –
CC(=O)N(C(C)=O)c1ccccc1 | – | 37.5 | – | – | – | – | – | – | –
CCOc1cccc(C=O)c1O | 264 | 67 | – | – | – | – | – | – | –
CCCc1cccc(C)c1 | 182 | -82.5 | – | 0.425 | – | – | – | – | –
CCCCCCCCCCCCS(=O)(=O)O | – | – | – | – | – | – | – | readily biodegradable | –
CSCCSC | 183 | – | – | – | – | – | – | – | –

Same assay, conditions: fish

Structure (SMILES) | log10 biotransformation half-life (days) | log10 BCF
C=C(CCCC)CCCCCCCC | 0.88 | –
C[Si]1(C)O[Si](C)(C)O[Si](C)(C)O[Si](C)(C)O[Si](C)(C)O1 | 2.74 | –
O=[N+]([O-])c1cccc(O)c1 | -0.49 | 1.4
O=C1c2ccccc2C(=O)c2c(Cl)cccc21 | -0.23 | 2.3
Clc1cc(-c2cc(Cl)c(Cl)c(Cl)c2)cc(Cl)c1Cl | – | 5.97
Nc1ccc(Cl)cc1[N+](=O)[O-] | -0.96 | 1.04
Brc1cc(Br)c(Oc2cc(Br)c(Br)cc2Br)c(Br)c1 | 2.03 | 6.15
Clc1cc(Cl)c(Cl)c(-c2cc(Cl)c(Cl)c(Cl)c2Cl)c1 | 2.51 | –
CC(C)(C)OOC(C)(C)CCC(C)(C)OOC(C)(C)C | 0.77 | 3.48
